Like-named read-outs stand apart in the source and are kept apart here.
Experiments:
[1] = Rat pharmacokinetics experiments; assay type: in vivo, Sprague-Dawley rats; conditions: for Vd: read-out: Apparent volume of distribution Vd, ss; for AUC(0-t): read-out: Area under the curve AUC0-24 h; for clearance: read-out: Clearance CL; for bioavailability / concentration at 8 h: po; for concentration at 8 h: oral dose 10 mg/kg
Method: Male Spraguee-Dawley rats (body weight: 220 g˜250 g) were purchased from Slac Laboratory Animals (Shanghai). […] Blood samples were taken through the posterior orbital vein and the blood samples were placed in a tube containing EDTA (as an anticoagulant) and stored in a −80° C. environment after centrifugation with a refrigerated centrifuge. Blood sample (at an amount of folds of 25 μL) was taken and cold acetonitrile containing the internal standard (100 μL) was added. Sample was centrifuged for 10 minutes to precipitate the plasma protein. Finally, supernatant (10 μL) was injected into the LC-MS/MS system for analysis.
LC-MS/MS analysis method: All samples were analyzed by LC-MS/MS system of API4000 QTRAP mass spectrometer equipped with LC-20AD and CBM-20A controllers, DGU-20A solvent degasser and SIL-20A autosampler (Japan Shimadzu, Colombia, Md., USA). A Bona Aeger Venusil XBP C18 column (50×2.1 mm; filler 5 micron particle size) was used for HPLC separation. The column temperature was maintained at 40° C. The flow rate was 0.3 mL/min and the total run time was 6 minutes.
For the quantification of MS/MS, the API4000 QTRAP mass spectrometer was operated in an ESI positive mode with multiple reaction monitoring (MRM). All compounds and internal standards were set to be monitored during a residence time of 100 milliseconds. The other MS/MS parameters were set as follows: atomization gas (GS1) at 30 psi, 551b turbine pressure, 4500V ion spray voltage, 500° C. ion source temperature. For the selected ion transitions, each analyte was tested at the optimal sensitivity of the cluster potential (DP) and the collision energy (CE). Finally, the data was collected and processed using AB SCIEX Analysist 1.5.2 data collection and integration software.
Test subjects, Sprague-Dawley rats (body weight from about 220 g to about 250 g), were purchased from Slac Laboratory Animals (Shanghai, China). All compounds tested at 1 mg/mL concentration, either intravenous injected at a tail vein at 1 mL/kg dosage for one group of test subjects or administered orally at a dose of 10 mL/kg in another group of test subjects. Then aliquots of blood samples were collected by retro-orbital venous plexus puncture at time intervals after the injection/administration. The blood samples were kept in tubes containing EDTA, centrifuged and stored at −80° C. before analysis. Blank plasma was collected by the same method before rats were treated with compounds. Plasma samples for analysis were obtained by removing about 25 μL from the saved blood sample; adding cold acetonitrile (about 100 μL) as internal standard; centrifuged for 10 minutes to precipitate plasma proteins; and collect about 10 μL of the upper clear solution for analysis done by an LC-MS/MS system.
All samples were analyzed by an API 4000 QTRAP® LC/MS/MS System equipped with Shimadzu LC-20AD pump, Shimadzu CBM-20A controller, SIL-20A autosampler and DGU-20A degasser (Shimadzu, Columbia, Md., USA). A Venusil XBP C18 HPLC Column (2.1×50 mm, 5 μm) (Bonna-Agela Technologies) was used for HPLC separation at isocratic temperature of 40° C. Flow rate was kept at 0.3 mL/min and the total run time was kept at 6 minutes.
Quantification by MS/MS is done using the above-described API 4000 QTRAP mass spectrometer equipped with multiple reaction monitoring (MRM) and positive electrospray ionization (ESI+) modes. All compounds and internal standard were detected at […] of about 100 milliseconds. Other parameters for MS/MS are shown below: Ion Source Gas 1 (GS1) at 30 psi, turbine pressure at 55 pounds, ion spray voltage at 4500 V, and ion source temperature at 500° C. MRM measurements of the analytes were performed using declustering potential (DP) and […] values optimized for each analyte. Finally, all of the operations, the acquisition and analysis of data were controlled by Analyst (version 1.5.2, AB Sciex, USA).

CYP3A4 = target: T1, CYP3A4 (Homo sapiens, UniProt P08684); assay: CYP liver enzyme inhibition experiment, CYP-3A4; assay type: in vitro ADME; conditions: human liver microsomes, pH 7.4, probe midazolam, test compound 10 μM, HLM, midazolam 1 μM, read-out: CYP-3A4 Inhibitory rate (%)
T1 construct: containing HLM (0.2 mg/mL), phosphate buffer (100 mM, pH 7.4); from tissue; host or cells: liver microsomes (HLM)
Method: The five major CYP isozymes and their respective probe substrates were: CYP-1A2 (phenacetin, 30 μM), CYP-2C9 (toluenesulfonylurea, 100 μM), CYP-2C19 40 μM), CYP-2D6 (dextromethorphan, 5 μM) and CYP-3A4 (midazolam, 1 μM). All probes were used close to or below their KMS concentrations. The mixture (200 μL) was incubated in a 37° C. constant temperature water bath, containing HLM (0.2 mg/mL), phosphate buffer (100 mM, pH 7.4), NADPH […], test compound (10 μM) and the respective CYP probe substrate. Before the reaction with NADPH, the mixture was pre-incubated for 10 minutes to undergo inhibitor-enzyme interaction. After a specific period of time (10 minutes for CYP-1A2, 2D6 and 3A4; 30 minutes for CYP-2C9 and 2C19), the reaction was quenched by addition to 100 μL solution of appropriate amount of cold acetonitrile. Reaction system was centrifuged and injected into the LC-MS/MS to quantify the concentration of specific metabolite formed from the substrate and the CYP enzyme. Each test compound was tested at least three times independently. […]
Before the start of the reaction with NADPH, the above mixture can be pre-incubated for about 10 minutes to allow inhibitor-enzyme interactions. […] The quenched mixture can be centrifuged, and aliquots of the mixture can then be analyzed by LC-MS/MS to quantify the concentrations of specific metabolic products for each CYP isozyme. […]

[2] = male, Sprague-Dawley, plasma, intravenous injection, 2 mg/kg
[3] = male, Sprague-Dawley, plasma, oral, 10 mg/kg
[4] = male, Sprague-Dawley, plasma, oral, 10 mg/kg, read-out: Maximum plasma concentration Cmax
[5] = male, Sprague-Dawley, plasma, oral, 10 mg/kg, read-out: Peak time Tmax
[6] = male, Sprague-Dawley, plasma, 10 mg/kg, P.O. 10 mg/kg vs I.V. 2 mg/kg, read-out: F %
[7] = male, Sprague-Dawley, plasma, 10 mg/kg, oral 10 mg/kg vs intravenous 2 mg/kg, read-out: Bioavailability F %
[8] = male, Sprague-Dawley, plasma, 10 mg/kg, read-out: plasma concentration after 8 hours
[9] = male, Sprague-Dawley, plasma, 10 mg/kg, read-out: plasma concentration after 8 hours in terms of molecular weight conversion
[10] = male, Sprague-Dawley, plasma, 10 mg/kg, oral, read-out: bioavailability

T1 sequence (P08684 whole entry): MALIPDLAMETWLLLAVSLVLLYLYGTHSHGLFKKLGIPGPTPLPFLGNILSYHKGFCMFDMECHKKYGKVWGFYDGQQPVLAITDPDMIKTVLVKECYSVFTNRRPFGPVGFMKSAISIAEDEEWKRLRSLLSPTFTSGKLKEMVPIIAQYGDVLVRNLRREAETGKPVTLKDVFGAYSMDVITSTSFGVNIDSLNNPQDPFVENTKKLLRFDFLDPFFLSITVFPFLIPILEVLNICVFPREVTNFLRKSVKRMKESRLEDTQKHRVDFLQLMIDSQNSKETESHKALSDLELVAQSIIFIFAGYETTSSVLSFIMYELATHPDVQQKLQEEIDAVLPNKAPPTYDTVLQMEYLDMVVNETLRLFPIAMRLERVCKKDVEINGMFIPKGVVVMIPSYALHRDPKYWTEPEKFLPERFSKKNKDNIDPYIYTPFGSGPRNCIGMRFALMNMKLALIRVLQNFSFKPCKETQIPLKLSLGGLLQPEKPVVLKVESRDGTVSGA

**Q.** For `Cc1cnc(-c2cc(N3CCc4nc(N5CCC(O)CC5)ncc4[C@H]3C)ncc2Cl)c(C)c1` [Compound B1, (R)-1-(6-(5′-chloro-3,5-dimethyl-[2,4′-bipyridin]-2′-yl)-5-methyl-5,6,7,8-tetrahydropyrido[4,3-d]pyrimidin-2-yl)piperidin-4-ol], which “increase of drug exposure (AUC) over that of A-55” value [1] is on record?
**A.** The value was 122%.

**Q.** What about the AUC0-24 h ([1]; I.V., 2 mg/kg) of the same molecule?
**A.** The AUC0-24 h was 2233 ng·h/mL.

**Q.** And the CL ([1]; I.V., 2 mg/kg)?
**A.** Its CL is 14.4 mL/min/kg.

**Q.** What about the t1/2 ([1]; I.V., 2 mg/kg) of the same molecule?
**A.** Its t1/2 is 1.7 h.

**Q.** And the AUC0-24 h ([1]; P.O., 10 mg/kg)?
**A.** Its AUC0-24 h is 12324 ng·h/mL.

**Q.** What about the Cmax ([1]; P.O., 10 mg/kg) of the same molecule?
**A.** The Cmax was 1520 ng/mL.

**Q.** And the Tmax ([1]; P.O., 10 mg/kg)?
**A.** The Tmax was 1 h.

**Q.** What about the Vd [1, 2] of the same molecule?
**A.** Its Vd is 2.2 L/kg.

**Q.** And the AUC(0-t) [1, 2]?
**A.** Its AUC(0-t) is 2230 ng·h/mL.

**Q.** What about the clearance [1, 2] of the same molecule?
**A.** The clearance was 14.4 mL/min/kg.

**Q.** What about the half-life ([1]; male, Sprague-Dawley, plasma, intravenous injection, 2 mg/kg, read-out: Half-life t1/2 (converted)) of the same molecule?
**A.** Its half-life is 1.7 h.

**Q.** What about the AUC(0-t) [1, 3] of the same molecule?
**A.** The AUC(0-t) was 12300 ng·h/mL.

**Q.** What about the Cmax [1, 4] of the same molecule?
**A.** The Cmax was 1520 ng/mL.

**Q.** And the Tmax [1, 5]?
**A.** Its Tmax is 1 h.

**Q.** What about the bioavailability [1, 6] of the same molecule?
**A.** Its bioavailability is 100%.

**Q.** And the bioavailability [1, 7]?
**A.** The bioavailability was 100%.

**Q.** And the concentration at 8 h [1, 8]?
**A.** The concentration at 8 h was 623 ng/mL.

**Q.** What about the concentration at 8 h [1, 9] of the same molecule?
**A.** Its concentration at 8 h is 1340 nM.

**Q.** What about the bioavailability [1, 10] of the same molecule?
**A.** The bioavailability was about 100%.

**Q.** And the inhibition at 10 min, 10 µM (CYP3A4)?
**A.** The inhibition at 10 min, 10 µM was 20 ± 5.9%.

**Q.** For `Cc1cnc(-c2cc(N3CCc4nc(N5CCC(O)CC5)ncc4C3C)ncc2Cl)c(C)c1` (racemic) [B], which AUC0-24 h ([1]; I.V., 2 mg/kg) is on record?
**A.** Its AUC0-24 h is 2905 ng·h/mL.

**Q.** What about the CL ([1]; I.V., 2 mg/kg) of the same molecule?
**A.** The CL was 11.4 mL/min/kg.

**Q.** And the AUC0-24 h ([1]; P.O., 10 mg/kg)?
**A.** The AUC0-24 h was 7685 ng·h/mL.

**Q.** What about the Vd [1, 2] of the same molecule?
**A.** The Vd was 3.1 L/kg.

**Q.** What about the AUC(0-t) [1, 2] of the same molecule?
**A.** Its AUC(0-t) is 2900 ng·h/mL.

**Q.** What about the clearance [1, 2] of the same molecule?
**A.** The clearance was 11.4 mL/min/kg.

**Q.** And the AUC(0-t) [1, 3]?
**A.** Its AUC(0-t) is 7680 ng·h/mL.

**Q.** What about the Cmax [1, 4] of the same molecule?
**A.** The Cmax was 1690 ng/mL.

**Q.** And the Tmax [1, 5]?
**A.** The Tmax was 0.5 h.

**Q.** And the bioavailability [1, 6]?
**A.** Its bioavailability is 53%.

**Q.** What about the bioavailability [1, 7] of the same molecule?
**A.** The bioavailability was 53%.

**Q.** What about the concentration at 8 h [1, 8] of the same molecule?
**A.** Its concentration at 8 h is 83 ng/mL.

**Q.** And the concentration at 8 h [1, 9]?
**A.** The concentration at 8 h was 178 nM.

**Q.** What about the bioavailability [1, 10] of the same molecule?
**A.** Its bioavailability is 53%.

**Q.** What about the inhibition at 10 min, 10 µM (CYP3A4) of the same molecule?
**A.** The inhibition at 10 min, 10 µM was 21 ± 4%.
